Test results taken from patent US11779585B2 (priority 2020, dated 2023).
“And” between values parts separate entries of the source, which are not always exact repeats. Equal entries are not always repeated. Where two headings read alike, the source gives them in different places.

Columns and labels:
[1] = Mice, cited from earlier work
[2] = African green monkeys, 1.6 mg/kg × 14 days, total dose 22.4; cited from earlier work
SARS-CoV-2 [3] = test: SARS-CoV-2 infection of VeroE6 cells, 48 hours, MOI 0.012; type: cell-based
[4] = cited from earlier work
SARS-CoV2 = test: microbe, parasite or virus in culture; type: cell-based, SARS-CoV-2; conditions: for inhibition at 0.075 µM: Severe acute respiratory syndrome coronavirus 2, Vero C1008, 0.075 μM; for inhibition at 0.15 µM: Severe acute respiratory syndrome coronavirus 2, Vero C1008, 0.15 μM; for inhibition at 0.3 µM: Severe acute respiratory syndrome coronavirus 2, Vero C1008, 0.3 μM; for inhibition at 0.6 µM: Severe acute respiratory syndrome coronavirus 2, Vero C1008, 0.6 μM
SARS-CoV-2 [5] = test: SARS-CoV-2 infection of Calu3 human lung cells, 72 hours, MOI 2; type: cell-based; conditions: Severe acute respiratory syndrome coronavirus 2, Calu-3, read-out: Efficacy IC90
[6] = Rats, cited from earlier work
[7] = cited from earlier work; remark: listed apart in the source
[8] = Dogs, cited from earlier work
MERS-CoV Jordan virus = type: cell-based; conditions: at a concentration of 0.1 μM, FIG. 1
[9] = 0.15 μM, title MOI 0.6 (text MOI 1.3), Plate 1
[10] = 0.3 μM, title MOI 0.6 (text MOI 1.3), Plate 1
[11] = title MOI 0.6 (text MOI 1.3), Plate 1
[12] = title MOI 0.6 (text MOI 1.3), Plate 2

Structure (SMILES): NC(=O)c1cn([C@@H]2O[C@H](CO)[C@@H](O)[C@H]2O)c2ncnc(N)c12 [Oya1, 4-amino-7-((2R,3R,4S,5R)-3,4-dihydroxy-5-(hydroxymethyl)tetrahydrofuran-2-yl)-7H-pyrrolo[2,3-d]pyrimidine-5-carboxamide]
- LD50, multi dose ([1]; × 9 days): 0.5 × 9 days mg/kg
- LD50, single dose [1]: 4 mg/kg
- LD50, total dose (multi dose) [1]: 4.5 mg/kg
- Effect [2]: lethal
- IC90 (SARS-CoV-2 [3]; Severe acute respiratory syndrome coronavirus 2, Vero C1008, VeroE6, read-out: Efficacy IC90): 55 nM and 0.017 µg/mL
- fold more effective against SARS-CoV-2 than Remdesivir (SARS-CoV-2 [3]; cells with highest infection rate (FIGS. 17A-17B: VeroE6, Calu3)): > 47 fold
- half-life in blood ([4]; Mice): 50 h
- cleared ([4]; mice, following 12 days post injection): 40%
- fold increase in activity over chlorpromazine HCl (SARS-CoV2): 1000 fold
- Inhibition (SARS-CoV2; 0.0047 μM, MOI 0.6, Plate 2): 1.733% and −3.975% and 4.262%
- Inhibition (SARS-CoV2; 0.0047 μM, title MOI 0.6 (text MOI 1.3), Plate 2): −0.7543% and −8.894% and 0.3653%
- Inhibition (SARS-CoV2; 0.0094 μM, MOI 0.2, Plate 1): 24.36% and 12.99%
- Inhibition (SARS-CoV2; 0.0094 μM, MOI 0.4, Plate 1): 9.365% and 6.857% and 1.875%
- Inhibition (SARS-CoV2; 0.0094 μM, title MOI 0.6 (text MOI 1.3), Plate 2): 5.994% and 7.809% and 12.95%
- Inhibition (SARS-CoV2; 0.0188 μM, title MOI 0.6 (text MOI 1.3), Plate 1): 4.894% and 1.871% and −1.054%
- fold better IC50 than GS-441524 (SARS-CoV2; 0.03 μM vs 1.4 μM): 47 fold
- Inhibition (SARS-CoV2; 0.0375 μM, MOI 0.2, Plate 2): 31.89% and 46.61%
- Inhibition (SARS-CoV2; 0.0375 μM, MOI 0.4, Plate 1): 12.31% and 18.82%
- Inhibition (SARS-CoV2; 0.0375 μM, MOI 0.6, Plate 1): 27.4624% and 39.74% and 52.32%
- Inhibition (SARS-CoV2; 0.0375 μM, MOI 0.6, Plate 2): 59.38% and 43.5% and 83.02%
- Inhibition (SARS-CoV2; 0.075 μM, MOI 0.2, Plate 1): 81.55% and 79.85%
- Inhibition (SARS-CoV2; 0.075 μM, MOI 0.2, Plate 2): 88.5915% and 83.72% and 67.19%
- Inhibition (SARS-CoV2; 0.075 μM, MOI 0.4, Plate 1): 50.83% and 69.6% and 36.13%
- Inhibition (SARS-CoV2; 0.075 μM, MOI 0.4, Plate 2): 24.91% and 28.1512%
- Inhibition (SARS-CoV2; 0.075 μM, MOI 0.6, Plate 1): 98.66% and 98.3%
- Inhibition (SARS-CoV2; 0.075 μM, MOI 0.6, Plate 2): 97.59%
- Inhibition (SARS-CoV2; 0.075 μM, title MOI 0.6 (text MOI 1.3), Plate 1): 100.0792% and 80.42%
- Inhibition (SARS-CoV2; 0.075 μM, title MOI 0.6 (text MOI 1.3), Plate 2): 99.3891% and 97.8301%
- Inhibition (SARS-CoV2; 0.15 μM, MOI 0.2, Plate 1): 99.12% and 95.59%
- Inhibition (SARS-CoV2; 0.15 μM, MOI 0.2, Plate 2): 99.22%
- Inhibition (SARS-CoV2; 0.15 μM, MOI 0.4, Plate 1): 98.7% and 94.16%
- Inhibition (SARS-CoV2; 0.15 μM, MOI 0.4, Plate 2): 86.8%
- Inhibition (SARS-CoV2; 0.15 μM, MOI 0.6, Plate 1): 99.78% and 99.74%
- Inhibition (SARS-CoV2; [9]): 100.3795%
- Inhibition (SARS-CoV2; 0.3 μM, MOI 0.2, Plate 1): 99.69%
- Inhibition (SARS-CoV2; 0.3 μM, MOI 0.2, Plate 2): 99.99%
- Inhibition (SARS-CoV2; 0.3 μM, MOI 0.4, Plate 1): 99.72%
- Inhibition (SARS-CoV2; 0.3 μM, MOI 0.6, Plate 1): 85.36%
- Inhibition (SARS-CoV2; [10]): 97.59%
- Inhibition (SARS-CoV2; 0.6 μM, MOI 0.2, Plate 1): 99.15%
- Inhibition (SARS-CoV2; 0.6 μM, MOI 0.6, Plate 2): 96.04%
- fold greater efficacy (IC50) than remdesivir (SARS-CoV2; Oya1 0.03 μM vs remdesivir 0.77 μM (Wang et al.)): 25 fold
- IC50 (SARS-CoV2; Severe acute respiratory syndrome coronavirus 2, Vero C1008): 30 nM
- inhibition at 0.0047 µM (SARS-CoV2; Severe acute respiratory syndrome coronavirus 2, Vero C1008, 0.0047 μM, MOI 0.4, Plate 2): 8.02%
- inhibition at 0.0094 µM (SARS-CoV2; Severe acute respiratory syndrome coronavirus 2, Vero C1008, 0.0094 μM, MOI 0.4, Plate 2): 15.2%
- inhibition at 0.0188 µM (SARS-CoV2; Severe acute respiratory syndrome coronavirus 2, Vero C1008, 0.0188 μM, MOI 0.4, Plate 2): 15.6%
- inhibition at 0.0375 µM (SARS-CoV2; Severe acute respiratory syndrome coronavirus 2, Vero C1008, 0.0375 μM, MOI 0.4, Plate 1): 10.9%
- inhibition at 0.075 µM (SARS-CoV2; MOI 0.2, Plate 1): 67.8%
- inhibition at 0.075 µM (SARS-CoV2; MOI 0.4, Plate 2): 19.8%
- inhibition at 0.15 µM (SARS-CoV2; MOI 0.2, Plate 1): 97.2%
- inhibition at 0.15 µM (SARS-CoV2; MOI 0.2, Plate 2): 96%
- inhibition at 0.15 µM (SARS-CoV2; MOI 0.4, Plate 1): 95.9%
- inhibition at 0.15 µM (SARS-CoV2; MOI 0.4, Plate 2): 83.4%
- inhibition at 0.15 µM (SARS-CoV2; MOI 0.6, Plate 1): 98.6%
- inhibition at 0.15 µM (SARS-CoV2; MOI 0.6, Plate 2): 99.7%
- inhibition at 0.15 µM (SARS-CoV2; [11]): 101%
- inhibition at 0.15 µM (SARS-CoV2; [12]): 101%
- inhibition at 0.3 µM (SARS-CoV2; MOI 0.2, Plate 1): 99.9%
- inhibition at 0.3 µM (SARS-CoV2; MOI 0.2, Plate 2): 100%
- inhibition at 0.3 µM (SARS-CoV2; MOI 0.4, Plate 1): 96.9%
- inhibition at 0.3 µM (SARS-CoV2; MOI 0.4, Plate 2): 91.4%
- inhibition at 0.3 µM (SARS-CoV2; MOI 0.6, Plate 1): 100%
- inhibition at 0.3 µM (SARS-CoV2; MOI 0.6, Plate 2): 100%
- inhibition at 0.3 µM (SARS-CoV2; [11]): 100%
- inhibition at 0.3 µM (SARS-CoV2; [12]): 101%
- inhibition at 0.6 µM (SARS-CoV2; MOI 0.2, Plate 1): 100%
- inhibition at 0.6 µM (SARS-CoV2; MOI 0.2, Plate 2): 99.7%
- inhibition at 0.6 µM (SARS-CoV2; MOI 0.4, Plate 1): 100%
- inhibition at 0.6 µM (SARS-CoV2; MOI 0.4, Plate 2): 67.4%
- inhibition at 0.6 µM (SARS-CoV2; MOI 0.6, Plate 1): 100%
- inhibition at 0.6 µM (SARS-CoV2; MOI 0.6, Plate 2): 99.7%
- inhibition at 0.6 µM (SARS-CoV2; [11]): 101%
- inhibition at 0.6 µM (SARS-CoV2; [12]): 101%
- IC90 (SARS-CoV-2 [5]): 180 nM and 0.056 µg/mL
- LD50, multi dose ([6]; × 24 days): 0.05 × 24 days mg/kg
- LD50, single dose [6]: 1.2 mg/kg
- LD50, total dose (multi dose) [6]: 1.2 mg/kg
- anti-cancer activity ([7]; Phase I clinical trials, humans): inactive against cancer
- tolerability in humans ([7]; Phase I clinical trials): well tolerated
- Reported Safe Clinical Dosing ([7]; daily dosing × 41): 0.12 mg/kg/day × 41
- MTD (not reached at highest single dose tested) ([7]; humans, Cavins 1967): > 0.3 mg/kg
- Observed toxic effect ([7]; humans, daily, highest dosing regimen 120 μg/kg/day × 41 days): 0
- Observed toxic effect ([7]; humans, thrice weekly, highest dosing regimen 50-250 μg/kg/day × 45 days): 0
- Observed toxic effect ([7]; humans, weekly, highest dosing regimen 200 μg/kg/day × 150 days): 0
- LD50, multi dose ([8]; × 14 days): 0.3 × 14 days mg/kg
- LD50, single dose [8]: 2.5 mg/kg
- LD50, total dose (multi dose) [8]: 4.2 mg/kg
- inhibition of the MERS-CoV RNA polymerase (MERS-CoV Jordan virus): approximately 100%
- Cytotoxicity (Vero E6 cells; 0.0047 μM, MOI 0.6, Plate 1): −3.314% and −2.167% and −3.385%
- Cytotoxicity (Vero E6 cells; 0.0047 μM, MOI 0.6, Plate 2): −3.314% and −2.167% and −3.385%
- Cytotoxicity (Vero E6 cells; 0.0094 μM, MOI 0.6, Plate 1): −0.2353% and −1.9307% and −0.5813%
- Cytotoxicity (Vero E6 cells; 0.0094 μM, MOI 0.6, Plate 2): −0.2353% and −1.9307% and −0.5813%
- Cytotoxicity (Vero E6 cells; 0.0188 μM, MOI 0.6, Plate 1): −0.5761% and 5.048% and 2.474%
- Cytotoxicity (Vero E6 cells; 0.0188 μM, MOI 0.6, Plate 2): −0.5761% and 5.048% and 2.474%
- Cytotoxicity (Vero E6 cells; 0.0375 μM, MOI 0.6, Plate 1): 14.23% and 14.79% and 16.69%
- Cytotoxicity (Vero E6 cells; 0.0375 μM, MOI 0.6, Plate 2): 14.23% and 14.79% and 16.69%
- Cytotoxicity (Vero E6 cells; 0.075 μM, MOI 0.6, Plate 1): 29.56% and 33.64% and 33.6%
- Cytotoxicity (Vero E6 cells; 0.075 μM, MOI 0.6, Plate 2): 29.56% and 33.64% and 33.6%
- Cytotoxicity (Vero E6 cells; 0.15 μM, MOI 0.6, Plate 1): 49.52% and 51.36% and 51.37%
- Cytotoxicity (Vero E6 cells; 0.15 μM, MOI 0.6, Plate 2): 49.52% and 51.36% and 51.37%
- Cytotoxicity (Vero E6 cells; [9]): 49.52% and 51.36% and 51.37%
- Cytotoxicity (Vero E6 cells; 0.3 μM, MOI 0.6, Plate 1): 66.57% and 64.56% and 64.1314%
- Cytotoxicity (Vero E6 cells; 0.3 μM, MOI 0.6, Plate 2): 66.57% and 64.56% and 64.1314%
- Cytotoxicity (Vero E6 cells; [10]): 66.57%
- Cytotoxicity (Vero E6 cells; 0.6 μM, MOI 0.6, Plate 1): 79.78% and 76.76% and 75.88%
- Cytotoxicity (Vero E6 cells; 0.6 μM, MOI 0.6, Plate 2): 79.78% and 76.76% and 75.88%
- toxicity margin or selectivity index, high (Vero E6 cells; 8 tests against SARS-CoV-2): 8.2
- toxicity margin or selectivity index, low (Vero E6 cells; 8 tests against SARS-CoV-2): 3.1
- average toxicity margin or selectivity index (Vero E6 cells; 8 tests against SARS-CoV-2, average): 4.8
